# Experimental data as given in US8080529B2, “Macrolides with anti-inflammatory activity” (Glaxo Group Limited, priority 2005, dated 2011).
# Like-named read-outs stand apart in the source and are kept apart here.
# What was measured:
# Assay type in all cases: cell-based
# TNF-α = assay: Inhibition of TNF-α production by stimulated human peripheral blood leukocytes in vitro; settings: for inhibition at 10 µM / inhibition at 50 µM: Homo sapiens, Leukocyte, read-out: Percentage of inhibition of TNF-α production
# Description: (§1) Test substances used in in vitro experiments were dissolved in dimethyl sulfoxide (DMSO) (Kemika, Croatia) at concentrations of 50 mM and 10 mM, and were further diluted to final concentrations of 50 μM and 10 μM in 1 mL Dulbecco's modified Eagle medium (DMEM) supplemented with 1% heat inactivated fetal bovine serum (FBS), 1% L-glutamine, 50 U/ml penicillin, 50 μg/ml streptomycin and 2.5 μg/mL Fungizone (amphotericin B). Media and all media supplements were purchased from Gibco, Australia, except the FBS was purchased from Sigma, USA.
# (§2) Peripheral blood leukocytes (PBL) were obtained from venous blood of healthy volunteers by sedimentation on 2% dextran T-500 (Amersham Biosciences, USA) and subsequent centrifugations of leukocyte rich plasma.
# (§3) Peripheral blood leukocytes (PBL), isolated as described above, were seeded in a 48-well plate at a concentration of 3 to 5×10^6 cell per well in culture medium consisting of RPMI 1640 medium (Institute of Immunology, Croatia) supplemented with 10% heat-inactivated fetal calf serum (FCS, Biowhittaker, USA), 100 U/ml penicillin (Gibco, Australia), 100 μg/ml streptomycin (Gibco, Australia) and 2 mM L-glutamine (Gibco, Australia), and preincubated with the test compounds for 2 h at 37° C., in an atmosphere of 5% CO2, and 90% humidity. Then, stimuli (Sigma, USA) were added to a final concentration of 2 μg/mL lipopolysaccharide (LPS), 1 μg/mL phorbol 12-myristate 13-acetate (PMA) or 120 μg/mL zymosan. Samples were incubated overnight under conditions described above. At the end of incubation, the supernatants were transferred to eppendorf tubes and centrifuged for 10 min at 1500×g. Concentrations of human TNF-α, IL-1β, IL-6 and IL-8 were determined in cell supernatants by sandwich ELISA, using capture and detection antibodies (R&D Systems, Minneapolis, Minn.) according to the manufacturer's recommendations.
# (§4) Inhibition (as percentage) was calculated using the following formula: % inhibition=(1−concentration of cytokines in sample/concentration of cytokines in positive control)×100.
# (§5) The positive control refers to LPS-, PMA- or zymosan-stimulated samples that were not preincubated with test compounds.
# IL-1α = assay: Inhibition of IL-1 production by stimulated human peripheral blood leukocytes in vitro; settings: for inhibition at 10 µM / inhibition at 50 µM: Homo sapiens, Leukocyte, read-out: Percentage of inhibition of IL-1α production
# IL-8 = assay: Inhibition of IL-8 production by stimulated human peripheral blood leukocytes in vitro; settings: for inhibition at 10 µM / inhibition at 50 µM: Homo sapiens, Leukocyte, read-out: Percentage of inhibition of IL-8 production
# Description: as §1, §2, §3, §4, §5
# IL-6 = assay: Inhibition of IL-6 production by stimulated human peripheral blood leukocytes in vitro; settings: for inhibition at 10 µM / inhibition at 50 µM: Homo sapiens, Leukocyte, read-out: Percentage of inhibition of IL-6 production
# Description: as §1, §2, §3, §4, §5
structure (smiles),measurement,setting,value
"CC[C@H]1OC(=O)[C@H](C)[C@@H](O[C@H]2C[C@@](C)(OC)C(OC(=O)CCN(CC)CC)[C@H](C)O2)[C@H](C)[C@@H](O[C@@H]2O[C@H](C)C[C@H](NC)[C@H]2O)[C@](C)(O)C[C@@H](C)CN(C)[C@H](C)[C@@H](O)[C@]1(C)O (stereo partly drawn) [Example 90, 3′-N-Demethyl-4″-O-(3-diethylaminopropionyl)-azithromycin]",inhibition at 10 µM,"TNF-α; 10 μM, LPS-stimulated PBL",78%
same,inhibition at 10 µM,"TNF-α; 10 μM, PMA-stimulated PBL",40%
same,inhibition at 10 µM,"TNF-α; 10 μM, zymosan-stimulated PBL",53%
same,inhibition at 50 µM,"TNF-α; 50 μM, LPS-stimulated PBL",100%
same,inhibition at 50 µM,"TNF-α; 50 μM, PMA-stimulated PBL",95%
same,inhibition at 50 µM,"TNF-α; 50 μM, zymosan-stimulated PBL",94%
same,inhibition at 10 µM,"IL-1α; 10 μM, LPS-stimulated PBL",62%
same,inhibition at 10 µM,"IL-1α; 10 μM, PMA-stimulated PBL",61%
same,inhibition at 10 µM,"IL-1α; 10 μM, zymosan-stimulated PBL",82%
same,inhibition at 50 µM,"IL-1α; 50 μM, LPS-stimulated PBL",91%
same,inhibition at 50 µM,"IL-1α; 50 μM, PMA-stimulated PBL",57%
same,inhibition at 50 µM,"IL-1α; 50 μM, zymosan-stimulated PBL",100%
same,inhibition at 10 µM,"IL-8; 10 μM, LPS-stimulated PBL",4%
same,inhibition at 10 µM,"IL-8; 10 μM, PMA-stimulated PBL",0%
same,inhibition at 10 µM,"IL-8; 10 μM, zymosan-stimulated PBL",24%
same,inhibition at 50 µM,"IL-8; 50 μM, LPS-stimulated PBL",38%
same,inhibition at 50 µM,"IL-8; 50 μM, PMA-stimulated PBL",53%
same,inhibition at 50 µM,"IL-8; 50 μM, zymosan-stimulated PBL",88%
same,inhibition at 10 µM,"IL-6; 10 μM, LPS-stimulated PBL",67%
same,inhibition at 10 µM,"IL-6; 10 μM, PMA-stimulated PBL",46%
same,inhibition at 10 µM,"IL-6; 10 μM, zymosan-stimulated PBL",60%
same,inhibition at 50 µM,"IL-6; 50 μM, LPS-stimulated PBL",88%
same,inhibition at 50 µM,"IL-6; 50 μM, PMA-stimulated PBL",90%
same,inhibition at 50 µM,"IL-6; 50 μM, zymosan-stimulated PBL",100%
"CC[C@H]1OC(=O)[C@H](C)[C@@H](O[C@H]2C[C@@](C)(OC)[C@@H](OCCCN(CC)CC)[C@H](C)O2)[C@H](C)[C@@H](O[C@@H]2O[C@H](C)C[C@H](N(C)C)[C@H]2O)[C@](C)(O)C[C@@H](C)CN(C)[C@H](C)[C@H]2OC(=O)O[C@@]21C [Example 95, 4″-O-(3-diethylamino-propyl)-azithromycin 11,12-cyclic carbonate]",Percentage of inhibition of TNF-α production,"TNF-α; 10 μM, LPS-stimulated PBL",12%
same,Percentage of inhibition of TNF-α production,"TNF-α; 10 μM, PMA-stimulated PBL",34%
same,Percentage of inhibition of TNF-α production,"TNF-α; 10 μM, zymosan-stimulated PBL",47%
same,Percentage of inhibition of TNF-α production,"TNF-α; 50 μM, LPS-stimulated PBL",30%
same,Percentage of inhibition of TNF-α production,"TNF-α; 50 μM, PMA-stimulated PBL",50%
same,Percentage of inhibition of TNF-α production,"TNF-α; 50 μM, zymosan-stimulated PBL",63%
same,Percentage of inhibition of IL-1α production,"IL-1α; 10 μM, LPS-stimulated PBL",0%
same,Percentage of inhibition of IL-1α production,"IL-1α; 10 μM, PMA-stimulated PBL",25%
same,Percentage of inhibition of IL-1α production,"IL-1α; 10 μM, zymosan-stimulated PBL",38%
same,Percentage of inhibition of IL-1α production,"IL-1α; 50 μM, LPS-stimulated PBL",0%
same,Percentage of inhibition of IL-1α production,"IL-1α; 50 μM, PMA-stimulated PBL",75%
same,Percentage of inhibition of IL-1α production,"IL-1α; 50 μM, zymosan-stimulated PBL",42%
same,Percentage of inhibition of IL-8 production,"IL-8; 10 μM, LPS-stimulated PBL",0%
same,Percentage of inhibition of IL-8 production,"IL-8; 10 μM, PMA-stimulated PBL",0%
same,Percentage of inhibition of IL-8 production,"IL-8; 10 μM, zymosan-stimulated PBL",5%
same,Percentage of inhibition of IL-8 production,"IL-8; 50 μM, LPS-stimulated PBL",16%
same,Percentage of inhibition of IL-8 production,"IL-8; 50 μM, PMA-stimulated PBL",21%
same,Percentage of inhibition of IL-8 production,"IL-8; 50 μM, zymosan-stimulated PBL",33%
same,Percentage of inhibition of IL-6 production,"IL-6; 10 μM, LPS-stimulated PBL",1%
same,Percentage of inhibition of IL-6 production,"IL-6; 10 μM, PMA-stimulated PBL",17%
same,Percentage of inhibition of IL-6 production,"IL-6; 10 μM, zymosan-stimulated PBL",18%
same,Percentage of inhibition of IL-6 production,"IL-6; 50 μM, LPS-stimulated PBL",8%
same,Percentage of inhibition of IL-6 production,"IL-6; 50 μM, PMA-stimulated PBL",56%
same,Percentage of inhibition of IL-6 production,"IL-6; 50 μM, zymosan-stimulated PBL",58%
